Patent US20180008629A1, “Compositions and Methods for Treating NLRP3 Inflammasome-Related Diseases and Disorders” (priority 2015, published 2018)
Each block holds one compound with its values, some of them ahead of it.

Experiments:
NLRP3 inflammasome = NLRP3 inflammasome (Mus musculus, UniProt Q8R4B8); assay: NLRP3 inflammasome activation in LPS primed BMDMs (caspase-1 / IL-1β immunoblot); format: cell-based; set-up: endogenous in cells; host or cells: mouse bone marrow derived macrophages (A1); details: for effect on BHB's suppressive effects on ATP-induced NLRP3 inflammasome activation: co-treatment with BHB; for ATP-induced NLRP3 activation: BMDMs stimulated with LPS and ATP, caspase-1 immunoblot (FIG. 1B); for induction of caspase-1 cleavage by ROS damage: rotenone (10 μM) or hydrogen peroxide
Chain of NLRP3 inflammasome (Q8R4B8 whole entry): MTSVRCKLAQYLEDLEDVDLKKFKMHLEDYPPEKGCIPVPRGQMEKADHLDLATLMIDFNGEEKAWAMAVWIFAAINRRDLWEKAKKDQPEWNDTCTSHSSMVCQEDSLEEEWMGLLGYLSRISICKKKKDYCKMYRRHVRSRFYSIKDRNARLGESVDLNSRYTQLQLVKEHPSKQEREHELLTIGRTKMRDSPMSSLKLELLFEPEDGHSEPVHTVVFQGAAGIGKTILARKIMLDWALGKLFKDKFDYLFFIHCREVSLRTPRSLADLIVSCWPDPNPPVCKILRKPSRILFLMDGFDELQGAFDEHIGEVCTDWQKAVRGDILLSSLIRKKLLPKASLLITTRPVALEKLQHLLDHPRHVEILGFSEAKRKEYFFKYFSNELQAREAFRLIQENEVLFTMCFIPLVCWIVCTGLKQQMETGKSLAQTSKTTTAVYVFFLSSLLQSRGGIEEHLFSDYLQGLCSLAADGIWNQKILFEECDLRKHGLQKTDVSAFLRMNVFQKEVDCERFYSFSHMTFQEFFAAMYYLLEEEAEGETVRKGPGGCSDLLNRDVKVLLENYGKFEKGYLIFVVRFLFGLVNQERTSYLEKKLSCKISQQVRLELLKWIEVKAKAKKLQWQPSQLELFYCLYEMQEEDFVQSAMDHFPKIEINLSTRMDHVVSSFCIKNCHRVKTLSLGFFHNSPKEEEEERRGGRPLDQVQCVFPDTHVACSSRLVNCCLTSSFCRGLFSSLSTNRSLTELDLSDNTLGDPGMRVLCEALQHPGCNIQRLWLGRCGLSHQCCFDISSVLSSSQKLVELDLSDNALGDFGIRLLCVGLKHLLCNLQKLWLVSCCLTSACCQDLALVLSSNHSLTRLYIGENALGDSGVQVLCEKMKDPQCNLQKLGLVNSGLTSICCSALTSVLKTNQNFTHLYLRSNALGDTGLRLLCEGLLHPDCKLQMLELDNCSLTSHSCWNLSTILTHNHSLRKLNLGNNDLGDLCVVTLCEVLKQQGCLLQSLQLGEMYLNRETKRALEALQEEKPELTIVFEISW
Procedure: All steps were performed using sterile technique. Femurs were collected in RPMI (Life Technologies, Grand Island, N.Y.)+5% FBS (R5; Omega Scientific, Tarzana, Calif.). Both ends of the femur were then cut and the femur was flushed with R5. The bone marrow was centrifuge at 450 g for 5 min, the supernatant was decanted and red blood cells were lysed using ACK lysis buffer (Quality Biological, Gaithersburg, Md.). After neutralization with R5, bone marrow cells were centrifuged, resuspended in 10 ml of R5 and placed into a 6 well plate. Non-adherent cells were collected the following morning. The non-adherent cells were resuspended at 4×10^6 cells/ml in media consisting of 10 ml supernatant of non-adherent cells, 7.2 ml L929 conditioned media, 6.8 ml R5 and MCSF (long/ml; R&D Systems, Minneapolis, Minn.). An additional 2 ml of fresh media was added 4 d after isolation. Non-adherent cells were collected on day 7, separated by density gradient separation using Fico/Lite (Atlanta Biologicals, Flowery Branch, Ga.) and mononuclear cells were collected. Cells were rinsed twice with Dulbecco's PBS+2% FBS, and resuspended at 1×10^6 cells/ml. Cells were treated with ultrapure LPS (Invivogen, San Diego, Calif.) alone or in combination with 5 mM ATP (Sigma, St. Louis, Mo.) or 200 μM palmitate-BSA (Sigma). The BMDMs were also primed with ultrapure lipid A (10 μg/ml; Invivogen, San Diego, Calif.), lipoteichoic acid (10 μg/ml; Invivogen), or Pam3-CSK4 (10 μg/ml; Invivogen) for 4 hour and stimulated with various NLRP3 activators (ATP 5 mM; Sigma, MSU 250 ug/ml; Invivogen, Silica; 200 ug/ml; Invivogen, sodium palmitate; 200 μM; Sigma, ceramide C6 80 μg/ml; Cayman, and sphingosine 40 μM; Cayman, Ann Arbor, Mich.) for 1 hour together with D-BHB or L-(BHB) at indicated concentration. The cell supernatants and cell lysates were collected 1 h after BHB treatment and analyzed for caspase-1 and IL-1β.
The BMDM cell lysates were prepared using RIPA buffer and immediately snap frozen in liquid nitrogen. Samples were left on ice for 1 hour with vortexing every 10 min. Samples were then centrifuge at 14,000 g for 15 min, the supernatant was collected and the protein concentration was determined using the DC Protein Assay (Bio-RAD). […] The immune complexes were visualized by incubation with horseradish peroxidase-conjugated anti-rat or anti-rabbit secondary antibody (Amersham Biosciences). Immunoreactive bands were visualized by enhanced chemiluminescence (PerkinElmer Life Sciences).

Gpr109a = details: Taggart et al., 2005; cited from earlier work
[1] = WT and Gpr109a−/− BMDMs stimulated with LPS and ATP

Structure (SMILES): O=CC[C@@H](O)[C@H](O)[C@H](O)CO [2DG, 2-deoxyglucose, reference compound]
mimicking of BHB's anti-inflammasome effect by inhibition of glycolysis (NLRP3 inflammasome; LPS primed BMDMs, ATP, 2-deoxyglucose (1 mM)): did not mimic

Structure (SMILES): Cn1cnc(N)c2ncnc1-2 [3-methyladenine, reference compound]
effect on BHB's suppressive effects on ATP-induced NLRP3 inflammasome activation (NLRP3 inflammasome; LPS primed BMDMs, ATP): did not abrogate

Structure (SMILES): CC(=O)O [acetate, reference compound]
ATP-induced NLRP3 activation (NLRP3 inflammasome; 10 mM): did not affect

Structure (SMILES): CC(=O)CC(=O)O [acetoacetate, reference compound]
ATP-induced NLRP3 activation (NLRP3 inflammasome; 10 mM): did not affect
effect on the NLRP3 inflammasome (NLRP3 inflammasome; control and Gpr109a deficient BMDMs, LPS and ATP, 10 mM): neither butyrate nor acetoacetate affect

Structure (SMILES): NOCC(=O)O [aminoxyacetate, reference compound]
effect on BHB's suppressive effects on ATP-induced NLRP3 inflammasome activation (NLRP3 inflammasome; LPS primed BMDMs, ATP): did not affect

Structure (SMILES): CC[C@H](C)[C@H](NC(=O)[C@H]([C@@H](C)CC)N(C)C(C)=O)C(=O)N[C@H](C(=O)N[C@@H](CC(C)C)C(=O)[C@@]1(C)CO1)[C@@H](C)O [epoxomicin, reference compound]
effect on BHB's suppressive effects on ATP-induced NLRP3 inflammasome activation (NLRP3 inflammasome; LPS primed BMDMs, ATP): did not abrogate

Structure (SMILES): C=C(C)[C@H]1Cc2c(ccc3c2O[C@@H]2COc4cc(OC)c(OC)cc4[C@@H]2C3=O)O1 [rotenone, reference compound]
effect on BHB's suppressive effects on ATP-induced NLRP3 inflammasome activation (NLRP3 inflammasome; LPS primed BMDMs, ATP): did not prevent
induction of caspase-1 cleavage by ROS damage (NLRP3 inflammasome; LPS primed BMDMs): not sufficient to induce

More lines, main results first:

NLRP3 inflammasome activation (Nlrp3 induced caspase-1 activation) (NLRP3 inflammasome; BMDMs (FIG. 6E)): efficiently blocked
requirement of Gpr109a to block NLRP3 (NLRP3 inflammasome; [1]): does not require
Structure (SMILES): C[C@H](O)CC(=O)O [(S)-BHB, (S)-3-hydroxybutyric acid]
anti-inflammasome activity (NLRP3 inflammasome; [1]): retains anti-inflammasome activity similar to bioactive D-(BHB)
binding to Gpr109a (Gpr109a): high affinity

effect on BHB's suppressive effects on ATP-induced NLRP3 inflammasome activation (NLRP3 inflammasome; LPS primed BMDMs, ATP): did not abrogate
Structure (SMILES): N#C/C(=C\c1ccc(-c2cc(Cl)ccc2Cl)o1)C(=O)Nc1cccc2ncccc12 [AGK2, reference compound]

caspase-1 activation in response to LPS and ATP (NLRP3 inflammasome; BMDMs, NAD+ (10 μM)): did not block
Structure (SMILES): NC(=O)c1ccc[n+]([C@@H]2O[C@H](COP(=O)([O-])OP(=O)(O)OC[C@H]3O[C@@H](n4cnc5c(N)ncnc54)[C@H](O)[C@@H]3O)[C@@H](O)[C@H]2O)c1 [NAD^+, reference compound]

effect on BHB's suppressive effects on ATP-induced NLRP3 inflammasome activation (NLRP3 inflammasome; LPS primed BMDMs, ATP): did not prevent
Structure (SMILES): OO [hydrogen peroxide, reference compound]
induction of caspase-1 cleavage by ROS damage (NLRP3 inflammasome; LPS primed BMDMs): not sufficient to induce

NLRP3 inflammasome activation with GPR109a ligand (NLRP3 inflammasome; BMDMs activated with LPS and ATP, niacin (1 mM)): did not block
Structure (SMILES): O=C(O)c1cccnc1 [niacin, reference compound]

inflammasome activation with HDAC inhibitor (NLRP3 inflammasome; LPS primed and NLRP3 agonist treated macrophages, TSA (50 nM)): no effects
Structure (SMILES): CC(/C=C/C(=O)NO)=C\[C@@H](C)C(=O)c1ccc(N(C)C)cc1 [trichostatin A, reference compound]
